Where two headings read alike, the source gives them in different places.
What was measured:
[1] = Plasma pharmacokinetics of GAE after single oral administration (HPLC, non-compartmental); format: in vivo, mice; settings: 200 mg/kg b.wt oral; for Cmax / AUC(0-t) / Tmax / half-life / AUC: 200 mg/kg; for Kel: in 1/min; for AUC: read-out: AUC0-α (converted)
Procedure: The developed method was successfully employed to determine GAE concentration in mouse plasma and tissue samples after single oral administration of GAE at a single dose (200 mg/kg body weight) in GAE and Radiation + GAE (R + GAE) treated group. […] Pharmacokinetic parameter analysis is presented in (Table 2, Table 3).
Black C57BL/6 male mice weighing 28–30 g were maintained at the Institutional Animal Experimental Facility. Animals were fed according to standard chow diet having free access to food and water ad libitum. The environmental condition was maintained at room temperature (22 ± 2 °C), relative humidity (45–60%) and 12 h dark/light cycle controlled facility. In this study, mice were randomly assigned to four different groups (n = 21) i.e untreated control (UC), GAE-treated (GAE), Radiation + GAE (R + GAE), Radiation group (R). Mice fasted overnight with free access to water before being dosed. Isolated GAE from leaves was dissolved with distilled water and ethanol in (7:3 v/v) and administered orally at a dose of 200 mg/kg body weight to GAE-treated and R + GAE treated groups only. The experiment was carried out in accordance to regulation and guideline of the, Committee for the purpose of control and supervision of Experiments on animals (CPCSEA), and study was approved by Institutional Animal Experimental Committee (IAEC), Institute of Nuclear Medicine & Allied Science, Delhi, India.
Group I untreated control (UC), Group II GAE-treated (GAE), Group III Radiation + GAE (R + GAE) and Group IV Radiation (R) exposed. The GAE was administered orally 15 min post irradiation. The whole-body radiation (5 Gy) was carried out using Bhabahtron II, Telecobalt machine, Panacea medical technology, Bangalore. The mice exposed at a dose rate of 0.961 Gy/min at field 35 × 35 cm^2 and the distance maintained from the source was 80 cm.
Blood and tissues samples of mice were collected at 15 min, 30 min, 1 h, 2 h, 4 h, 8 h and 24 h after GAE administration (3mice per time). Blood was obtained from retro orbital plexus of mice and collected in heparinized eppendorf tubes, followed by centrifugation at 2500 g for 15 min. The resulting plasma layer was separated and stored in tubes at −20 °C for further analysis. Tissue samples (brain, heart, liver, kidney, and spleen) were weighed and put into the normal saline solution to remove the blood by blotting on filter paper and were minced and homogenized with physiological saline solution (1:2 w/v) thoroughly in an ice bath. The homogenates were stored at −80 °C until the analysis.
Aliquot of plasma sample (100 µL) dispensed in standing vial deproteinized with ACN (200 µL) containing the IS (100 ng/mL) and centrifuged at 2500 g for 15 min at 4 °C. The supernatant was collected transferred to a clean glass tube, reconstituted with 200 µL mobile phase vortexed mixed for 2 min and centrifuged at 2500 g for 5 min. Following this, a 20 µL aliquot of supernatant was injected into the HPLC system for analysis.
GAE was separated on the high-performance liquid chromatography (HPLC), SPD-10A consisting of binary HPLC pump, ultraviolet detector, and a Rheodyne manual injector equipped with a 20 µl loop (Shimadzu, Japan). Separation was achieved on Kinetex Biphenyl RP 100 Å column (2.6 µm, 150 × 4.6 mm) (Phenomenex, Torrance) installed with phenyl cartridges (Phenomenex, Torrance). The system was controlled using class VP software (Shimadzu, Japan). The chromatographic separation of GAE was in approximately within 10 min, at room temperature by using the isocratic mobile phase mixture of ACN and 1%OPA (30:70, v/v) with pH maintained at 3.3. 20 µL of the samples were injected at a flow rate of 0.5 mL/min and the wavelength 270 nm was used for detection. […]

[2] = Stability of GAE in mice plasma and liver homogenate (QC samples); format: in vitro ADME; settings: for Stability % Long term: 2 week of storage at −20 °C; for freeze-thaw stability (fraction remaining) at 50 ng/mL / freeze-thaw stability (fraction remaining) at 250 ng/mL / freeze-thaw stability (fraction remaining) at 500 ng/mL: mouse, three consecutive freeze thaw cycles (−20 °C to room temperature)
Procedure: The recovery of GAE at three concentration was 79.3, 89.6 and 99.2% in plasma. […] The analyte were also shown to be stable in the plasma at room temperature for atleast 8 h with a reduction of less than 12–15% (Table 1). Based on the result reliable, reproducible and robust method has been developed and validated.
Standard stock solutions of GAE at 1 mg/mL were prepared and dissolved in appropriate amounts of diluent stock, water, and methanol (8:2 v/v). GAE was adequately diluted with diluent stock to give an intermediate solution at 100 µg/mL for each analyte. GAE calibration standards were at concentration of 5, 10, 20, 30, 40, 50, 100, 250, 500 ng/mL. Internal standard propyl gallate (PG) were prepared to spiked aliquots of blank mouse plasma (200 µL). […] combined spiking solution at a final concentration of 5, 10, 20, 40, 50, 100, 250, 500 and 1000 ng/mL were prepared and used to spike aliquots of blank tissue homogenates of Liver, kidney, heart, brain, and spleen (400 µL). The entire sample was stored at 4 °C. Quality control samples were prepared independently in the same biological matrices (plasma and tissue homogenate of liver) stored at −20 °C until use with each analytical run. Intra-day and inter-day precision were assessed by using six replicate QC samples at three levels of GAE included in each run to determine the accuracy and precision. […] The inter-day accuracy and precision were assessed by analyzing three batches on different days. The recoveries of GAE from plasma and tissue (liver) homogenate samples were done at three QC levels. The recovery of the analyte was calculated by comparing the analyte peaks of extracted QC samples against the equivalent aqueous solution.
The QC samples were kept at room temperature for 6 h and a freeze-thaw cycle (−80 °C) was repeated for three times. […] For all storage conditions, replication of three concentrations was analyzed after the operation and the experimental result was obtained through a chromatographic area and compared with the nominal values. On the basis of previous studies reported on pharmacokinetic and biodistribution[22],[23], we standardized and validated our study to further investigate the radiomodifying action of GAE.

[3] = R + GAE group (60Co-γ 5 Gy, GAE 15 min post irradiation)
[4] = male, C57BL/6, mouse, po, GAE treated group
[5] = male, C57BL/6, mouse, po, R + GAE group (60Co-γ 5 Gy, GAE 15 min post irradiation)

Clearance ([1]; GAE treated group): 0.017 ± 0.0005 mL/min
Cmax ([1]; GAE treated group): 4390.85 ± 285.20 ng/mL
Kel ([1]; GAE treated group): 0.026 ± 0.003
Clearance [1, 3]: 0.07 ± 0.01 mL/min
Kel [1, 3]: 0.025 ± 0.02
AUC(0-t) [1, 4]: 2920 ng·h/mL
Tmax [1, 4]: ~15 min
half-life [1, 4]: 26.5 ± 3.2 min
AUC [1, 4]: 2930 ng·h/mL
Cmax ([1]; male, C57BL/6, mouse, po, GAE treated group, read-out: Cmax): 4390 ± 285 ng/mL
AUC(0-t) [1, 5]: 1070 ng·h/mL
Tmax [1, 5]: ~15 min
half-life [1, 5]: 22.4 ± 3.6 min
AUC [1, 5]: 1070 ng·h/mL
Cmax ([1]; male, C57BL/6, mouse, po, R + GAE group (60Co-γ 5 Gy, GAE 15 min post irradiation), read-out: Cmax): 3390 ± 78.1 ng/mL
reduction after freeze-thaw cycle ([2]; freeze-thaw cycle): less than 8%
Stability % Long term ([2]; liver, 50 ng/mL): 62.6 ± 24.5%
Stability % Short term ([2]; liver, 50 ng/mL, room temperature for 24 h): 66.9 ± 22.18%
Stability % Long term ([2]; liver, 250 ng/mL): 79.26 ± 6.06%
Stability % Short term ([2]; liver, 250 ng/mL, room temperature for 24 h): 86.8 ± 1.7%
Stability % Long term ([2]; liver, 500 ng/mL): 95.13 ± 7.6%
Stability % Short term ([2]; liver, 500 ng/mL, room temperature for 24 h): 99.9 ± 0.47%
freeze-thaw stability (fraction remaining) at 50 ng/mL ([2]; liver homogenate, liver, 50 ng/mL): 0.648 ± 0.049
freeze-thaw stability (fraction remaining) at 250 ng/mL ([2]; liver homogenate, liver, 250 ng/mL): 0.842 ± 0.025
freeze-thaw stability (fraction remaining) at 500 ng/mL ([2]; liver homogenate, liver, 500 ng/mL): 0.978 ± 0.049
freeze-thaw stability (fraction remaining) at 50 ng/mL ([2]; plasma, 50 ng/mL): 0.79 ± 0.0225
freeze-thaw stability (fraction remaining) at 250 ng/mL ([2]; plasma, 250 ng/mL): 0.901 ± 0.0093
freeze-thaw stability (fraction remaining) at 500 ng/mL ([2]; plasma, 500 ng/mL): 0.9342 ± 0.0037
Stability % Long term ([2]; plasma, 50 ng/mL): 70.32 ± 1.37%
Stability % Short term ([2]; plasma, 50 ng/mL, room temperature for 24 h): 79.35 ± 1.37%
Stability % Long term ([2]; plasma, 250 ng/mL): 87.55 ± 0.635%
Stability % Short term ([2]; plasma, 250 ng/mL, room temperature for 24 h): 89.67 ± 1.58%
Stability % Long term ([2]; plasma, 500 ng/mL): 92.01 ± 0.179%
Stability % Short term ([2]; plasma, 500 ng/mL, room temperature for 24 h): 99.25 ± 0.120%
reduction in plasma at room temperature ([2]; plasma, room temperature for at least 8 h): 12–15%
stability at room temperature ([2]; room temperature for 24 h, plasma and tissue samples): stable
stability at −20 °C ([2]; −20 °C for one month): stable
Structure (SMILES): CCOC(=O)c1cc(O)c(O)c(O)c1 [GAE, Ethyl 3,4,5-trihydroxybenzoate]

From publication PMC6906394, “Radiomodifying action, Pharmacokinetic and Biodistribution of Ethyl 3, 4, 5-trihydroxybenzoate-Implication in development of radiomitigator” (Scientific Reports, 2019)
